Reference: US20240067657A1, “AMIDO-SUBSTITUTED PYRIDYL COMPOUNDS AND METHODS OF USE THEREOF FOR THE TREATMENT OF HERPESVIRUSES” (Merck Sharp & Dohme LLC, priority 2020, published 2024)
Where two headings read alike, the source gives them in different places.

Tests used:
[1] = target: T1, Human cytomegalovirus DNA polymerase (Human cytomegalovirus, UniProt P08546); experiment: HCMV polymerase assay (AlphaLISA, IC50); format: biochemical; conditions: polymerase assay of Example 190
T1 construct: made in house; host or cells: SF21 insect cells (baculovirus vector)
Description: (§1) Human cytomegalovirus and varicella zoster virus DNA polymerases were expressed via baculovirus vector in SF21 cells and purified. Heterodimeric nucleic acid substrate used in the herpesvirus polymerase reactions was generated by annealing a 59-mer template to a 17-mer digoxigenin-labeled primer. Polymerase (HCMV final concentration of 0.2 nM; VZV final concentration of 0.4 nM) was combined with an inhibitor compound or DMSO in assay buffer (10 mM HEPES, pH 7.5, 25 mM KCl, 25 mM NaCl, 5 mM MgCl2, 5% glycerol, 0.67 mg/ml bovine serum albuminutes, and 1 mM tris(2-carboxyethyl)phosphine), and this mixture was pre-incubated for 30 minutes at room temperature in 384-well microtiter plates. The polymerization reaction was initiated by the addition of template/primer substrate (final concentration: 1.6 nM), and dNTPs (final concentration: 24 nM dCTP, 24 nMdGTP, 16 nM dATP, 16 nM dTTP, and 0.8 nM biotin-dUTP). After 60 minutes incubation at 37° C., reactions were terminated with quench buffer (25 mM HEPES pH 7.5, 100 mM NaCl, 0.25% Tween-20, 12 mM EDTA, and 1 mg/ml bovine serum albumin). Incorporation of biotinylated UTP was detected with 2.5-5 ug/ml anti-DIG AlphaLISA acceptor beads and 5-10 ug/ml streptavidin AlphaLISA donor beads (Perkin Elmer). Compound effects were normalized to the window defined by the controls (DMSO only and pre-quenched wells), and were fit using a 4-parameter algorithm to report an IC50.

[2] = system: HSV-1 Strain F in Vero or MRC5 cells; experiment: Viral qPCR assay HSV-1 (V0/V1, V2/V3), EC50; format: cell-based; conditions: 10%
Description: (§2) Viral qPCR Assays (V0/V1)
(§3) MRC5 cells, Vero cells, and MeWo cells were obtained from ATCC and were maintained at 37° C./5% CO2/90% relative humidity in Minimal Essential Medium with 10% fetal bovine serum, […] L-glutamine, 100 units/ml penicillin and 100 ug/ml streptomycin. Assay plates were prepared by dispensing compounds dissolved in DMSO into wells of 384 well collagen-coated plates using an ECHO acoustic dispenser. Each compound was tested in a 10-point, serial 3-fold dilution. Controls included uninfected cells and infected cells treated only with DMSO. Assays were initiated by mixing selected cells, in suspension, with virus, and dispensing 50 μl/well infected cells to pre-plated compounds. Plates were incubated at 37° C./5% CO2/90% relative humidity for ˜72 hrs to permit genomic replication, and infected cells were lysed by the addition of an equal volume of lysis buffer (10 mM Tris-HCl, pH8, 50 mM KCl, 2 mM MgCl2, 0.45% NP-40, 0.45% Tween-20, and 100 μg/ml proteinase K). An aliquot of the lysate was transferred to a 384-well PCR plate and incubated at 56° C. for 1 hour and then at 95° C. for 10 min. Levels of a viral gene and of the cellular control, PPIA (Thermo Fisher Assay ID=Hs04194521_s1), were measured in separate 10 μL qPCR assays using TaqMan® Gene Expression Master Mix (Applied Biosystems), and an 7900HT Fast Real-Time PCR System with 384-Well Block Module. 7-point, serial 10-fold dilutions of a plasmid standard were run on each plate to generate a standard curve, and genome copies numbers were calculated by plotting experimental Ct onto linear regression of the standard curve. Viral genome copy numbers were normalized by cellular control copy number, and compound effects were normalized to the window defined by the controls. Calculated % effects were fit using a 4-parameter algorithm, and EC50 was reported.
(§4) Viral qPCR Assays (V2/V3)
as §3, with “gene” for “gene and of the cellular control, PPIA (Thermo Fisher Assay ID=Hs04194521_s1),”, “in” for “in separate”, “Compound effects on viral” for “Viral”, “number” for “numbers were normalized by cellular control copy number, and compound effects”, “reported. • HCMV: Strain AD169 Street was assayed in MRC-5 cells and was used at 0.05-0.1 pfu/cell. The assays were performed in either growth media or in the same media with 50% fetal bovine serum. Primer-probe set was Thermo Fisher Assay ID=AIFATFK. • VZV: Strain Street was maintained as an infected cell stock in MRC-5 cells. It was assayed in MeWo or MRC5 cells and was used at 0.04-0.1 pfu/cell. […]” for “reported.”

[3] = target: T2, varicella zoster virus DNA polymerase (Varicella-zoster virus, UniProt P09252); experiment: VZV polymerase assay (AlphaLISA, IC50); format: biochemical; conditions: polymerase assay of Example 190
T2 construct: made in house; host or cells: SF21 insect cells (baculovirus vector)
Description: as §1

[4] = system: HCMV Strain AD169 in MRC-5 cells; experiment: Viral qPCR assay HCMV (V0/V1, V2/V3), EC50; format: cell-based; conditions: Human betaherpesvirus 5, AD169, MRC5, viral qPCR assay of Example 191; read-out: HCMV Cell (EC50)
Description: as §2, §3, §4
as §3, with “gene” for “gene and of the cellular control, PPIA (Thermo Fisher Assay ID=Hs04194521_s1),”, “in” for “in separate”, “Compound effects on viral” for “Viral”, “number” for “numbers were normalized by cellular control copy number, and compound effects”, “reported. • HCMV: Strain AD169 Street was assayed in MRC-5 cells and was used at 0.05-0.1 pfu/cell. The assays were performed in either growth media or in the same media with 50% fetal bovine serum. Primer-probe set was Thermo Fisher Assay ID=AIFATFK. • VZV: Strain Street was maintained as an infected cell stock in MRC-5 cells. It was assayed in MeWo or MRC5 cells and was used at 0.04-0.1 pfu/cell. […]” for “reported.”

[5] = system: VZV in MeWo or MRC5 cells; experiment: Viral qPCR assay VZV (V0/V1, V2/V3), EC50; format: cell-based; conditions: Human alphaherpesvirus 3, MRC5, MRC5 cells, 10%; read-out: VZV Cell (EC50) MRC5 10%
Description: as §2, §3, §4
as §3, with “gene” for “gene and of the cellular control, PPIA (Thermo Fisher Assay ID=Hs04194521_s1),”, “in” for “in separate”, “Compound effects on viral” for “Viral”, “number” for “numbers were normalized by cellular control copy number, and compound effects”, “reported. • HCMV: Strain AD169 Street was assayed in MRC-5 cells and was used at 0.05-0.1 pfu/cell. The assays were performed in either growth media or in the same media with 50% fetal bovine serum. Primer-probe set was Thermo Fisher Assay ID=AIFATFK. • VZV: Strain Street was maintained as an infected cell stock in MRC-5 cells. It was assayed in MeWo or MRC5 cells and was used at 0.04-0.1 pfu/cell. […]” for “reported.”

[6] = Human alphaherpesvirus 1, Vero, VERO cells, read-out: HSV1 Cell (EC50) VERO 10%
[7] = Human alphaherpesvirus 1, MRC5, MRC5 cells, read-out: HSV1 Cell (EC50) MRC5 10%

T2 sequence (P09252 whole entry): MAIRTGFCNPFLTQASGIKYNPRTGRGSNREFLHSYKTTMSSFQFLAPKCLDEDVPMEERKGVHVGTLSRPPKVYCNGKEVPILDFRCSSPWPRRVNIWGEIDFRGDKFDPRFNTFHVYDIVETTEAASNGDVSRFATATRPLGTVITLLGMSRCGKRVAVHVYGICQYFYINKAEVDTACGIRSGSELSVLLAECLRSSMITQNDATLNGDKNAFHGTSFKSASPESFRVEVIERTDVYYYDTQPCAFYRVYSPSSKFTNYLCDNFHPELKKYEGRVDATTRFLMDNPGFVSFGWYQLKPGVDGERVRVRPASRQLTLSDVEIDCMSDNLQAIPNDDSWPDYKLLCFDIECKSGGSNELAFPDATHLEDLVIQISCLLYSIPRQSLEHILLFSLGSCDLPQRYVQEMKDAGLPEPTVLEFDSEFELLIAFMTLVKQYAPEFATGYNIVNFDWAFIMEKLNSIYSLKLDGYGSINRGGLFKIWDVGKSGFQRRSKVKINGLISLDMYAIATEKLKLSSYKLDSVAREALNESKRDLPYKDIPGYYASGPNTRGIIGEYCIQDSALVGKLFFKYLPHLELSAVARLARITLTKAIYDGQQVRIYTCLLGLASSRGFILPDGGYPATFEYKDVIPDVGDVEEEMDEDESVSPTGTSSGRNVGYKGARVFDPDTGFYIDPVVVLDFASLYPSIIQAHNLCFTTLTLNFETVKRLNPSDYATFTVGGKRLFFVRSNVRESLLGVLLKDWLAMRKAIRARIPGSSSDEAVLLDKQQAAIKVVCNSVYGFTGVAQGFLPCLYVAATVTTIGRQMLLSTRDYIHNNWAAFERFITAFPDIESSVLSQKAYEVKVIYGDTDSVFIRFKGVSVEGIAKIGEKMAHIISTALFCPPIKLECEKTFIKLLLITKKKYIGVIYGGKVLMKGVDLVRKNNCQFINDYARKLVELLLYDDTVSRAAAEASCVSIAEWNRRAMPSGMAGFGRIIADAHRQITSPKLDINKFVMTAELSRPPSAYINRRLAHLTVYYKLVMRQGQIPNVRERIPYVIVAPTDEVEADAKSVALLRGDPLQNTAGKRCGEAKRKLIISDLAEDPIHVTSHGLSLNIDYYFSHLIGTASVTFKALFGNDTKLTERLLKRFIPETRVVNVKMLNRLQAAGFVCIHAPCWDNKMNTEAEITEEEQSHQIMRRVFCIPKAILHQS
T1 sequence (P08546 whole entry): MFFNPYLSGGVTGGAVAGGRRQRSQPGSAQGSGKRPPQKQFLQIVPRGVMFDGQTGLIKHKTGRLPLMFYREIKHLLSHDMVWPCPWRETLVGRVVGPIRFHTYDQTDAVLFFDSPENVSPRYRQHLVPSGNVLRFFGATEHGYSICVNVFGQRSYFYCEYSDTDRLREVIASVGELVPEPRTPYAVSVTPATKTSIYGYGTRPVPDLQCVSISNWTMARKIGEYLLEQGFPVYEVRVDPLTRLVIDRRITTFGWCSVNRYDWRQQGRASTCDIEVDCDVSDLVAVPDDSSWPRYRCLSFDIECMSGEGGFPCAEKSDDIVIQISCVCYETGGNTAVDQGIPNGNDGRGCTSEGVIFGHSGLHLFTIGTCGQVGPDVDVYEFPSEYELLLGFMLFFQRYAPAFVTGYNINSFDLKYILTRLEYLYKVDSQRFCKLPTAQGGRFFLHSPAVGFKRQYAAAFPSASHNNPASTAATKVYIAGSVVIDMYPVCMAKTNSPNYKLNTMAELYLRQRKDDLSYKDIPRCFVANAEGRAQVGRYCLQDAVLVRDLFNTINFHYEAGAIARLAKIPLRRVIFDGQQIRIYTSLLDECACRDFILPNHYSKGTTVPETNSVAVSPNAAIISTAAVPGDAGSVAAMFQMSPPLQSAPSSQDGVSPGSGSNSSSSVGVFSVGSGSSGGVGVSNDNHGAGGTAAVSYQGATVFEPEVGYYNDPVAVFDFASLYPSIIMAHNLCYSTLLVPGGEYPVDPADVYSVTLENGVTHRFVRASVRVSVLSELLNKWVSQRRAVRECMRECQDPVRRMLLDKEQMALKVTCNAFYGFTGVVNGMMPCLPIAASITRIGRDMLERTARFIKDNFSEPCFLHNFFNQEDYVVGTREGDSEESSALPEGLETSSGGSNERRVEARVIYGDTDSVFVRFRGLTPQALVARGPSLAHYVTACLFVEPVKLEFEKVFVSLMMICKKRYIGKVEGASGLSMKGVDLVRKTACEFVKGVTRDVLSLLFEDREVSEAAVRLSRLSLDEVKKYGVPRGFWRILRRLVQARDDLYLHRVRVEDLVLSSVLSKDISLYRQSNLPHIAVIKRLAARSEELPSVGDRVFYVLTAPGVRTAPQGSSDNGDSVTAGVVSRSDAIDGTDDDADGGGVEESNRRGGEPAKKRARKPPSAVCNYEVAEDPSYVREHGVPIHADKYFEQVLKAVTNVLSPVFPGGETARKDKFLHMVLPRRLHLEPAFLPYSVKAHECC

Structure (SMILES)	IC50 [1]	IC50 [3]	EC50 [2, 6]	EC50 [4]	EC50 [5]	EC50 [2, 7]
O=C(NCc1ccc(Cl)cc1)c1cc(O[C@H]2CCN3C(=O)OC[C@@H]3C2)c(CC2CCCO2)cn1 (mixture of isomers) [Compound 113]	56.6 nM	18.4 nM	227 nM	357 nM	–	–
O=C(NCc1ccc(Cl)cc1)c1cc(O[C@@H]2CCN3C(=O)OC[C@H]3C2)c(-c2cn[nH]c2)cn1 (racemic) [Compound 25]	13.9 nM	4.44 nM	1670 nM	259 nM	–	–
CC(=O)N1CCC(Oc2cc(C(=O)NCc3ccc(Cl)cc3)ncc2C#Cc2ccc(C)cn2)CC1 [Compound 71]	172 nM	119 nM	354 nM	1510 nM	–	–
CC(=O)N1CCC(Oc2cc(C(=O)NCc3ccc(Cl)cc3)ncc2/C=C/CC(C)O)CC1 (centres unmarked) [Compound 72]	68.8 nM	51.8 nM	1110 nM	855 nM	–	–
C#Cc1ccc(CNC(=O)c2cc(O[C@H]3CCN4C(=O)OC[C@@H]4C3)c(-c3cnn(C(F)F)c3)cn2)cc1 [Compound 88]	184 nM	–	–	616 nM	1180 nM	785 nM
O=C(NCc1ccc(Cl)c(F)c1F)c1cc(O[C@H]2CCN3C(=O)OC[C@@H]3C2)c(-c2cnn(C(F)F)c2)cn1 [Compound 92]	10.3 nM	–	–	227 nM	339 nM	200 nM
O=C(NCc1ccc(Cl)cc1)c1cc(O[C@H]2CCN3C(=O)OC[C@@H]3C2)c(N2CCOCC2)cn1 [Compound 116]	84.8 nM	–	–	791 nM	3600 nM	2420 nM
C[C@@H]1CN(c2cnc(C(=O)NCc3ccc(Cl)cc3)cc2O[C@H]2CCN3C(=O)OC[C@@H]3C2)C[C@H](C)[C@]1(C)O [Compound 124]	172 nM	–	–	1270 nM	6050 nM	2850 nM
O=C(NCc1ccc(Cl)cc1)c1cc(O[C@H]2CCN3C(=O)OC[C@@H]3C2)c(-c2cnc(CO)o2)cn1 [Compound 148b]	1.89 nM	–	–	102 nM	220 nM	116 nM
C[C@@H]1CN(C)CCN1c1cc(C(=O)NCc2ccc(C#N)cc2)ncc1C#N [Compound 172]	128 nM	–	–	419 nM	4060 nM	4190 nM
CN1CCN(c2cc(C(=O)NCc3ccc(C#N)cc3)ncc2C#N)[C@H](CF)C1 [Compound 174]	36.5 nM	–	–	472 nM	1190 nM	966 nM
O=C(c1cc(O[C@H]2CCN3C(=O)OC[C@@H]3C2)c(-c2cnn(C(F)F)c2)cn1)N(CO)Cc1ccc(Cl)cc1 [Compound 180]	29.2 nM	–	–	183 nM	265 nM	176 nM
CN1CCC(N2CCC(C(=O)OCN(Cc3ccc(Cl)cc3)C(=O)c3cc(O[C@H]4CCN5C(=O)OC[C@@H]5C4)c(-c4cnn(C(F)F)c4)cn3)CC2)CC1 [Compound 184]	894 nM	–	–	519 nM	314 nM	173 nM
CC(C)[C@H](N)C(=O)OCN(Cc1ccc(Cl)cc1)C(=O)c1cc(O[C@H]2CCN3C(=O)OC[C@@H]3C2)c(-c2cnn(C(F)F)c2)cn1 [Compound 185]	25.2 nM	–	–	126 nM	263 nM	152 nM

The next lines start with results.

IC50 [1]	IC50 [3]	Structure (SMILES)	EC50 [2, 6]	EC50 [4]	EC50 [5]	EC50 [2, 7]
59.1 nM	20.3 nM	O=C(NCc1ccc(Cl)cc1)c1cc(O[C@H]2CCN3C(=O)OC[C@@H]3C2)c(-c2ncco2)cn1 [Compound 4]	210 nM	292 nM	–	–
983 nM	426 nM	Cn1cc(-c2cnc(C(=O)N3CCCC3c3ccc(Cl)cc3)cc2O[C@H]2CCN3C(=O)OC[C@@H]3C2)cn1 (some centres unmarked) [Compound 100]	–	–	–	–
2020 nM	1300 nM	CC(=O)N1CCC(Oc2cc(C)nc(C(=O)NCc3ccc(Cl)cc3)c2)CC1 [Compound 101]	–	–	–	–
169 nM	–	N#Cc1cc(O[C@H]2CCN3C(=O)OC[C@@H]3C2)cc(C(=O)NCc2ccc(Cl)cc2)n1 [Compound 128]	–	1780 nM	5340 nM	8330 nM
66.2 nM	–	CC(=O)N1CCC(Oc2cc(C(=O)NCc3ccc(Cl)cc3)ncc2-c2nnc(C)o2)CC1 [Compound 153]	–	478 nM	913 nM	636 nM
12.3 nM	–	CN1CCN(c2cc(C(=O)NCc3ccc(Cl)cc3)ncc2C#N)[C@H](CF)C1 [Compound 173]	–	279 nM	682 nM	833 nM
227 nM	–	O=C(OCN(Cc1ccc(Cl)cc1)C(=O)c1cc(O[C@H]2CCN3C(=O)OC[C@@H]3C2)c(-c2cnn(C(F)F)c2)cn1)C1CCOCC1 [Compound 182]	–	148 nM	213 nM	105 nM
